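How tested: cells in 96-well plates exposed to compound for 48 hours at five concentrations. Abbreviation: GI50, concentration required for 50% inhibition of growth.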 Active and inactive are the calls of the source. No stated cut-off is given here; in the data, active = GI50 up to about 1.1 µM and inactive = higher.
Legend:
Test in all cases: NCI tumour cell line growth inhibition, 48 h
SK-MEL-28 = test system: SK-MEL-28
NCI-H522 = test system: NCI-H522
HCC 2998 = test system: HCC 2998
HOP-62 = test system: HOP-62
OVCAR-8 = test system: OVCAR-8
SK-MEL-2 = test system: SK-MEL-2
SNB-75 = test system: SNB-75
UACC-257 = test system: UACC-257
MDA-MB-231 = test system: MDA-MB-231
CCRF-CEM = test system: CCRF-CEM
IGROV-1 = test system: IGROV-1
PC-3 = test system: PC-3
MDA-MB-435 = test system: MDA-MB-435
MOLT-4 = test system: MOLT-4
TK-10 = test system: TK-10
K562 = test system: K562
SF-295 = test system: SF-295
RXF 393 = test system: RXF 393
LOX IMVI = test system: LOX IMVI
OVCAR-5 = test system: OVCAR-5

Row | Structure (SMILES) | GI50 (SK-MEL-28) | GI50 (NCI-H522) | GI50 (HCC 2998) | GI50 (HOP-62) | GI50 (OVCAR-8) | GI50 (SK-MEL-2) | GI50 (SNB-75) | GI50 (UACC-257) | GI50 (MDA-MB-231) | GI50 (CCRF-CEM) | GI50 (IGROV-1) | GI50 (PC-3) | GI50 (MDA-MB-435) | GI50 (MOLT-4) | GI50 (TK-10) | GI50 (K562) | GI50 (SF-295) | GI50 (RXF 393) | GI50 (LOX IMVI) | GI50 (OVCAR-5)
1 | CC(=O)Nc1cc(C(=O)Nc2cc(C(=O)Nc3cc(C(=O)Nc4cc(C(=O)Nc5cc(C(=O)NCCC(=O)NCCCN(C)C)n(C)c5)n(C)c4)n(C)c3)n(C)c2)n(C)c1 | 67.6 µM (inactive) | 17.9 µM (inactive) | 50.4 µM (inactive) | > 100 µM (inactive) | > 100 µM (inactive) | > 100 µM (inactive) | > 100 µM (inactive) | 76.2 µM (inactive) | > 100 µM (inactive) | 27.8 µM (inactive) | > 100 µM (inactive) | > 100 µM (inactive) | 36.8 µM (inactive) | 38.9 µM (inactive) | > 100 µM (inactive) | 58.7 µM (inactive) | > 100 µM (inactive) | > 100 µM (inactive) | 37.4 µM (inactive) | > 100 µM (inactive)
2 | CCO/N=C\c1ccc2oc(-c3ccccc3)cc(=O)c2c1 | 28.8 µM (inactive) | 0.0247 µM (active) | 0.31 µM (active) | 0.46 µM (active) | 0.465 µM (active) | 0.127 µM (active) | 0.219 µM (active) | 18.3 µM (inactive) | 0.557 µM (active) | 0.228 µM (active) | 0.24 µM (active) | 0.19 µM (active) | 0.0133 µM (active) | 0.121 µM (active) | 2.26 µM (inactive) | 0.034 µM (active) | 0.191 µM (active) | 0.261 µM (active) | 1.07 µM (active) | 2.56 µM (inactive)
3 | Cc1ccc(O)c(-c2csc(NCN3CCN(CNc4nc(-c5cc(C)ccc5O)cs4)CC3)n2)c1 | > 100 µM (inactive) | > 100 µM (inactive) | > 100 µM (inactive) | > 100 µM (inactive) | > 100 µM (inactive) | > 100 µM (inactive) | > 100 µM (inactive) | > 100 µM (inactive) | > 100 µM (inactive) | 20.5 µM (inactive) | > 100 µM (inactive) | > 100 µM (inactive) | > 100 µM (inactive) | 15.2 µM (inactive) | > 100 µM (inactive) | > 100 µM (inactive) | > 100 µM (inactive) | > 100 µM (inactive) | > 100 µM (inactive) | > 100 µM (inactive)

Source: ChEMBL document CHEMBL1201862, “PubChem BioAssay data set” (2004)
